From publication PMC7887271, “Fast acting allosteric phosphofructokinase inhibitors block trypanosome glycolysis and cure acute African trypanosomiasis in mice” (Nature Communications, 2021)

Columns and labels:
hPFK-P = target: T1, hPFK-P (Homo sapiens, UniProt Q01813); assay: ALDO/G3PDH/TIM linked enzyme assay, human PFK-P; format: biochemical; details: aldolase/TIM linked assay, 25 °C; highest concentration 100 µM
T1 construct: made in house; host or cells: PFK-deficient Saccharomyces cerevisiae
T1 sequence (Q01813 1-784): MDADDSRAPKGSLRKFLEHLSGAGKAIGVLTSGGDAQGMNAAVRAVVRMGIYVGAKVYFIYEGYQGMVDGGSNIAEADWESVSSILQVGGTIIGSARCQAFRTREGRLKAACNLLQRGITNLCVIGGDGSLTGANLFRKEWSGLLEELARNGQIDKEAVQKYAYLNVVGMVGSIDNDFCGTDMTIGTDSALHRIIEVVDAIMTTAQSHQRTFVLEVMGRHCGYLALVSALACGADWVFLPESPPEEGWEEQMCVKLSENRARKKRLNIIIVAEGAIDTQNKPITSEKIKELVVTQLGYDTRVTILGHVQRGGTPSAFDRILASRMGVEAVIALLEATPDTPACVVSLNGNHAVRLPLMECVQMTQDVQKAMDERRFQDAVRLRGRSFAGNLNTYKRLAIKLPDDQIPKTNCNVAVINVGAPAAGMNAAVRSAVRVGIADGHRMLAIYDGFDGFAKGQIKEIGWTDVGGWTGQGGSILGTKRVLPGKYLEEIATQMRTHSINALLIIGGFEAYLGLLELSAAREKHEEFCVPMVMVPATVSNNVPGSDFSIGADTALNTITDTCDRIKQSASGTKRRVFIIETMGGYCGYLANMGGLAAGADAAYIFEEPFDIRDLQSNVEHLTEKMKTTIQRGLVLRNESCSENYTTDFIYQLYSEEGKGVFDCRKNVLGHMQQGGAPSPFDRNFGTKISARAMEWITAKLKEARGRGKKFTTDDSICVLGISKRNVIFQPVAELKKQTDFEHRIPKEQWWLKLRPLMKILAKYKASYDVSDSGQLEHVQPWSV
Protocol: (§1) Enzyme activity was measured using an aldolase/TIM linked assay at 25 °C. […] Experiments were carried out in duplicate. Data are presented as mean values ± standard deviation. […] Source data are provided as a Source Data File. b Kill time of CTCB-405 compared with existing HAT drugs in the clinic. […] Over 99% of trypanosomes were killed in under 30 min compared with much slower killing rates for the other drugs. The points on the graph for CTCB-405 were determined from two independent biological replicate experiments with each time point measured twice (using duplicate technical replicates). The ESD for each point on the graph is between 0.7 and 1.4%. For drugs in clinical use each point on the graph is the average of two technical replicates from one experiment (with a maximum difference of 7.8% for any of the points). Source data are provided as a Source Data File.
(§2) In the PFK/PYK/LDH assay, the linked PYK activity acts to convert the ADP produced by PFK back to ATP. As ATP is an inhibitor of human PFK (but not TbPFK) at concentrations higher than ~0.5 mM the regeneration of ATP is likely to affect the assay readout. […] TIM interconverts GA3P and DHAP, and DHAP is reduced to glycerol 3-phosphate by G3PD, alongside the oxidation of NADH to NAD^+, which was measured by observing the change in UV absorbance at 340 nm for 10 minutes at 25° C using a Spectramax© M5 Multimode plate reader. […]

hPFK-M = target: T2, hPFK-M (Homo sapiens, UniProt P08237); assay: ALDO/G3PDH/TIM linked enzyme assay, human PFK-M; format: biochemical; details: aldolase/TIM linked assay, 25 °C; highest concentration 100 µM
T2 construct: made in house; host or cells: PFK-deficient Saccharomyces cerevisiae
T2 sequence (P08237 1-780): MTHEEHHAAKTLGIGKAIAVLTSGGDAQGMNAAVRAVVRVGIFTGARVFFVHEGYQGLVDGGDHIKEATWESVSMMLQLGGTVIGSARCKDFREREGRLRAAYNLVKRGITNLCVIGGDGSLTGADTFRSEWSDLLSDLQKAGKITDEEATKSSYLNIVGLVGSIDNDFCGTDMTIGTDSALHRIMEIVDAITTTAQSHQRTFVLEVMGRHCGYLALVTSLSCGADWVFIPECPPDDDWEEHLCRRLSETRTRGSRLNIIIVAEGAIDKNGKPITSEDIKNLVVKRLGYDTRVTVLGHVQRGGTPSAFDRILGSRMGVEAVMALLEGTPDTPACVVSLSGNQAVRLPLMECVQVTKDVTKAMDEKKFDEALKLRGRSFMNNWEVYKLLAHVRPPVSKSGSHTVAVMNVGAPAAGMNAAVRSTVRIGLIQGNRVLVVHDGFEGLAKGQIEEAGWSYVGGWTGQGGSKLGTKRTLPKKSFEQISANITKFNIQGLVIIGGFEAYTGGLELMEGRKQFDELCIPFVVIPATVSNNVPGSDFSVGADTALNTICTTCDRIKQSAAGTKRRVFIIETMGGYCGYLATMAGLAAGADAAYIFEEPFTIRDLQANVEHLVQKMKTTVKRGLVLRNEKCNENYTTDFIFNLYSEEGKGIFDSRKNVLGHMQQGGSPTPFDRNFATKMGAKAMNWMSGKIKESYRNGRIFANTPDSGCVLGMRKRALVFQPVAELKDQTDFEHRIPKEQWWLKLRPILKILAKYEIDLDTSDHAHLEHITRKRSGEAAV
Protocol: as §1, §2

CN(C)CCn1ccc2c(ccn2Cc2ccc(Cl)c(Cl)c2)c1=O [CTCB-405, 1-[(3,4-Dichlorophenyl)methyl]-5-[2-(dimethylamino)ethyl] pyrrolo[3,2-c]pyridin-4-one]
inhibition of hPFK-P (hPFK-P): no significant inhibition
inhibition of hPFK-M (hPFK-M): no significant inhibition
